{"source": "paper PMC8160456", "about": "“Molecular Mechanism of Citrate Efflux by the Mitochondrial Citrate Transporter CT in Filamentous Fungus Mucor circinelloides WJ11” (Frontiers in Microbiology, 2021)", "target": "T1, CT (mitochondrial citrate transporter) (Mucor circinelloides, UniProt S2JNX7)", "T1 construct": "gene HMPREF1544_02933; complete ct gene, codon-optimised, pET30a(+) NdeI-ATG-ct-Histag-stop-HindIII (C-terminal His tag kept); E. coli BL21(DE3) inclusion bodies, urea-solubilised, Ni column, renatured, reconstituted in liposomes; about 32 kDa; three Mtc domains 10-104, 106-199, 209-296", "T1 sequence (S2JNX7 1-301)": "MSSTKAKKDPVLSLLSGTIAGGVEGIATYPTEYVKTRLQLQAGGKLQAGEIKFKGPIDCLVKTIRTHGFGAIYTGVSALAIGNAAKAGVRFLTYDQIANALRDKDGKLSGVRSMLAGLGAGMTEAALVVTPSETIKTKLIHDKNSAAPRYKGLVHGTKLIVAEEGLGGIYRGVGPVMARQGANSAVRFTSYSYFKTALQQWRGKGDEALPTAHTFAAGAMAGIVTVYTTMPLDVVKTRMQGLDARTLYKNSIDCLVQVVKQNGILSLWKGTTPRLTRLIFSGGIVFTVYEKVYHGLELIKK", "assay": "inhibition of […]citrate/citrate exchange in CT-reconstituted liposomes", "type": "biochemical", "conditions": "20 mM inhibitor; 0.01 mM [14C]citrate outside, 10 mM citrate inside; 2 min"}
{"smiles": "Cc1ncc(COP(=O)(O)O)c(C=O)c1O", "note": "[pyridoxal-5'-phosphate]", "values": [{"measurement": "inhibition at 20 mM", "value": "This activity was inhibited strongly by PLP"}]}
